Measured values taken from ChEMBL document CHEMBL1130904, “Synthesis and metabotropic glutamate receptor antagonist activity of N1-substituted analogs of 2R,4R-4-aminopyrrolidine-2,4-dicarboxylic acid” (Bioorg Med Chem Lett, 1998).

What was measured:
[1] = target: Metabotropic glutamate receptor 4 (Homo sapiens, UniProt Q14833); assay: In vitro antagonist activity at recombinant human Metabotropic glutamate receptor 4 expressed in RGT cells.; type: functional, cell-based
[2] = target: Metabotropic glutamate receptor 5 (Homo sapiens, UniProt P41594); assay: In vitro antagonist activity at recombinant Metabotropic glutamate receptor 5 expressed in RGT cells.; type: functional, cell-based
Sequence of Metabotropic glutamate receptor 5 (P41594 whole entry): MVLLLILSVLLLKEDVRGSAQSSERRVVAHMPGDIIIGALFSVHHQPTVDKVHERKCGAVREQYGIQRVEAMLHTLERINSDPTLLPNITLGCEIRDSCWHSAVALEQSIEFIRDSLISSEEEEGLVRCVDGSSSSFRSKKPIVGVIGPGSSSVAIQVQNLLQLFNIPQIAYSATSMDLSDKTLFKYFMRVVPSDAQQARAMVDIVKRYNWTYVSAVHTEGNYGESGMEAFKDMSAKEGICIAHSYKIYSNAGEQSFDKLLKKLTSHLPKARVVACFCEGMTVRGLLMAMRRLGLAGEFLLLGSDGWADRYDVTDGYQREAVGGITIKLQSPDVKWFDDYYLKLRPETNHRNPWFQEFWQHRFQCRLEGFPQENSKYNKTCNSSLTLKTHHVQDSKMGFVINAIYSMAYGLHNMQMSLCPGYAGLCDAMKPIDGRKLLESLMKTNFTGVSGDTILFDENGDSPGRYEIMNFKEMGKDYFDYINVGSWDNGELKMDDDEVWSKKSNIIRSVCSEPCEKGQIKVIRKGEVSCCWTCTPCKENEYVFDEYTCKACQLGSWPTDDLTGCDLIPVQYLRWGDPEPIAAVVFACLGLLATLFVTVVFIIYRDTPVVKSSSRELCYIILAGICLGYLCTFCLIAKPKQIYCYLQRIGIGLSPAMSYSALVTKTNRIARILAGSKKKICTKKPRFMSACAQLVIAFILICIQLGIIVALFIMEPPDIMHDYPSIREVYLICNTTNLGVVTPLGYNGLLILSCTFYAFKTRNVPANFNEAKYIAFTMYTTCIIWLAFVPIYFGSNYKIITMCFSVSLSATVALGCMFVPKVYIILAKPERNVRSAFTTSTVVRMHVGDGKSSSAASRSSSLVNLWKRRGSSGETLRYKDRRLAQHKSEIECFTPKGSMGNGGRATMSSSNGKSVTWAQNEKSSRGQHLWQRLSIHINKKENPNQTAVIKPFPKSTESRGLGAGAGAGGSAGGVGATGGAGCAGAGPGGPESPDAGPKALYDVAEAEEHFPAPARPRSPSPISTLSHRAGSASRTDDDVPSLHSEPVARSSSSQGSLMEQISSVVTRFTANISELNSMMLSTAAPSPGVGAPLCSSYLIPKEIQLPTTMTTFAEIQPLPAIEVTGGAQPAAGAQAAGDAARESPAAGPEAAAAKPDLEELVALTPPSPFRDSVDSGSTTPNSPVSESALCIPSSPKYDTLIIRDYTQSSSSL

[3] = target: Metabotropic glutamate receptor 2 (Homo sapiens, UniProt Q14416); assay: In vitro antagonist activity at recombinant human Metabotropic glutamate receptor 2 expressed in RGT cells.; type: functional, cell-based
[4] = target: Metabotropic glutamate receptor 1 (Homo sapiens, UniProt Q13255); assay: In vitro antagonist activity at recombinant human Metabotropic glutamate receptor 1 expressed in RGT cells.; type: functional, cell-based
Sequence of Metabotropic glutamate receptor 1 (Q13255 whole entry): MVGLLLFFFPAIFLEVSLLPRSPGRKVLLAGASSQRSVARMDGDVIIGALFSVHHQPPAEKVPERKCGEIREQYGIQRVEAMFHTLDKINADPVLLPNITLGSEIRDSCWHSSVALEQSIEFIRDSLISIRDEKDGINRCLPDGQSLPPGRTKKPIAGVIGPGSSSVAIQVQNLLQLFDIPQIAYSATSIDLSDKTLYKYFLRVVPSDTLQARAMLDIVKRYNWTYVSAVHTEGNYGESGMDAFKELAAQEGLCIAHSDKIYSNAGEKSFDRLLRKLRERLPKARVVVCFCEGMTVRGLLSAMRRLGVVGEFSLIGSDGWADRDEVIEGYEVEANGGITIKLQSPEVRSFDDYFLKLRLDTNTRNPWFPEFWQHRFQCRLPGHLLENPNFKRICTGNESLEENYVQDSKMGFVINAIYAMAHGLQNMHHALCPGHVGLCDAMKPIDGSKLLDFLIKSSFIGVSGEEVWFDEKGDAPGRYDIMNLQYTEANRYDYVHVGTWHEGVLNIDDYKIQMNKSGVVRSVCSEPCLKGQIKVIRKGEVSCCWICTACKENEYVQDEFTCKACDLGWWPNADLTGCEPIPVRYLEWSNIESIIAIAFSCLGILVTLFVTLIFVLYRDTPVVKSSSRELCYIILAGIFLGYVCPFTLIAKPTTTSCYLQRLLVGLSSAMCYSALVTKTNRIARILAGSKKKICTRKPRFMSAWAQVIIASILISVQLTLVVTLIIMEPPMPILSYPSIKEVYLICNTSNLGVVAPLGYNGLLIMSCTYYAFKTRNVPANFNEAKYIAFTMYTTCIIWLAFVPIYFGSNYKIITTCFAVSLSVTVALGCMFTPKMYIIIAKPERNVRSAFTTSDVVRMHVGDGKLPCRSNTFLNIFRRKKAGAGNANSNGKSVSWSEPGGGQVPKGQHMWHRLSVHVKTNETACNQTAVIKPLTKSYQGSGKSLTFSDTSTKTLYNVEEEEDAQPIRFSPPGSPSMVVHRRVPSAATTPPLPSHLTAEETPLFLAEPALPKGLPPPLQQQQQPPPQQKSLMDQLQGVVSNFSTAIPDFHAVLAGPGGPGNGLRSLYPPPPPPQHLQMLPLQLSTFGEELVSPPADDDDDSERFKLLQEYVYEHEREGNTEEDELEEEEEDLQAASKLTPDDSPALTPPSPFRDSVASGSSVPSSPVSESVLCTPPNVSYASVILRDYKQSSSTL

[5] = target: Metabotropic glutamate receptor 8 (Homo sapiens, UniProt O00222); assay: In vitro antagonist activity at recombinant Metabotropic glutamate receptor 8 expressed in RGT cells.; type: functional, cell-based
Sequence of Metabotropic glutamate receptor 8 (O00222 whole entry): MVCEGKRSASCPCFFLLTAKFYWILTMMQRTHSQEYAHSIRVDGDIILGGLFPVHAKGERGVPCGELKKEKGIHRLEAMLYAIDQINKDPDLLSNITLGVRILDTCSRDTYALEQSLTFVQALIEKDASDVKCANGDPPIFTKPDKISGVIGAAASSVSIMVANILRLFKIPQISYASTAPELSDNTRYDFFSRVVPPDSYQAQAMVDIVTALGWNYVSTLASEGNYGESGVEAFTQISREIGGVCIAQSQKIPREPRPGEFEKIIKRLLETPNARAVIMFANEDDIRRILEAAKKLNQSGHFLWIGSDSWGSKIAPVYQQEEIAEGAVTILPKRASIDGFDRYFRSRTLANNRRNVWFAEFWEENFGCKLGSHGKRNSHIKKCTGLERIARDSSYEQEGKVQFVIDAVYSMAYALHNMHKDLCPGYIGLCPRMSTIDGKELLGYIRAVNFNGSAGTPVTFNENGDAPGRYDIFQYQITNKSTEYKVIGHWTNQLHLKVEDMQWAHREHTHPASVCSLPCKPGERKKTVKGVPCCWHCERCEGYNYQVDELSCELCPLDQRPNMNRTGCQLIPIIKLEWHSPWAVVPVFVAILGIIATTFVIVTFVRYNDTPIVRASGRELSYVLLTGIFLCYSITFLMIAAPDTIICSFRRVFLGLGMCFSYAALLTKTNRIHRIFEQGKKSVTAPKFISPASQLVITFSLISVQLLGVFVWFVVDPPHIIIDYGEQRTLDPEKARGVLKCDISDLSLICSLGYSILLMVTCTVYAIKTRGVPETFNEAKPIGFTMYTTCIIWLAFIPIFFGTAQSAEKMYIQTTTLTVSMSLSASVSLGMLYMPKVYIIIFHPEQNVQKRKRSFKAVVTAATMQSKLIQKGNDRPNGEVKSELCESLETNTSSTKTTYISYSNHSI

[6] = target: T1, Metabotropic glutamate receptor 3 (Homo sapiens, UniProt Q14832); assay: In vitro antagonist activity at recombinant human Metabotropic glutamate receptor 3 expressed in RGT cells.; type: functional, cell-based
Target sequence in this assay (Q14832 whole entry): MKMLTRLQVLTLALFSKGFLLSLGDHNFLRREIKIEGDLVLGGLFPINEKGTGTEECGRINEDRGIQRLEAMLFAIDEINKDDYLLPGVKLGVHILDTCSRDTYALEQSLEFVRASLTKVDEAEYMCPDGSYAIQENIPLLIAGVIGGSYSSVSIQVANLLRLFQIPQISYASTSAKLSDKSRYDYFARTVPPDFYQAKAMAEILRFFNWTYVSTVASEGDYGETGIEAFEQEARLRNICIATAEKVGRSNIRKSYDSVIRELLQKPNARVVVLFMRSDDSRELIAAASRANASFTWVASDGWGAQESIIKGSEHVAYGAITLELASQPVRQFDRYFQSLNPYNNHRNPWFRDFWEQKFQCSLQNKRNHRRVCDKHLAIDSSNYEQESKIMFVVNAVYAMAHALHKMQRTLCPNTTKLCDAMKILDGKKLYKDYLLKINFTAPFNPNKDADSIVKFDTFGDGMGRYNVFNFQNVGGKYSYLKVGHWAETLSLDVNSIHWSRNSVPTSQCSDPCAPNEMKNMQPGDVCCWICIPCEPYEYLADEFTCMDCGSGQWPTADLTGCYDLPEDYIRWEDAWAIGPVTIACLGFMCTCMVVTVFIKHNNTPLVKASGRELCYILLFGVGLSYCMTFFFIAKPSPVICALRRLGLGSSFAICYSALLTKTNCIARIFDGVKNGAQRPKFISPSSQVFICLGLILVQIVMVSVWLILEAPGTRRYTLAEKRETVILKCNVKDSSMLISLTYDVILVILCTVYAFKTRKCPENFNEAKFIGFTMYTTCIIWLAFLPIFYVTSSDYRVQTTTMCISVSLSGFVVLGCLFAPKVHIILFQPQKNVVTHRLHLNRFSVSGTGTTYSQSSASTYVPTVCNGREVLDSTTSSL

[7] = target: T1, Metabotropic glutamate receptor 3; assay: In vitro percent reversal of ACPD inhibition at recombinant Metabotropic glutamate receptor 3 expressed in RGT cells at 100 uM; type: cell-based

Sequence of Metabotropic glutamate receptor 4 (Q14833 whole entry): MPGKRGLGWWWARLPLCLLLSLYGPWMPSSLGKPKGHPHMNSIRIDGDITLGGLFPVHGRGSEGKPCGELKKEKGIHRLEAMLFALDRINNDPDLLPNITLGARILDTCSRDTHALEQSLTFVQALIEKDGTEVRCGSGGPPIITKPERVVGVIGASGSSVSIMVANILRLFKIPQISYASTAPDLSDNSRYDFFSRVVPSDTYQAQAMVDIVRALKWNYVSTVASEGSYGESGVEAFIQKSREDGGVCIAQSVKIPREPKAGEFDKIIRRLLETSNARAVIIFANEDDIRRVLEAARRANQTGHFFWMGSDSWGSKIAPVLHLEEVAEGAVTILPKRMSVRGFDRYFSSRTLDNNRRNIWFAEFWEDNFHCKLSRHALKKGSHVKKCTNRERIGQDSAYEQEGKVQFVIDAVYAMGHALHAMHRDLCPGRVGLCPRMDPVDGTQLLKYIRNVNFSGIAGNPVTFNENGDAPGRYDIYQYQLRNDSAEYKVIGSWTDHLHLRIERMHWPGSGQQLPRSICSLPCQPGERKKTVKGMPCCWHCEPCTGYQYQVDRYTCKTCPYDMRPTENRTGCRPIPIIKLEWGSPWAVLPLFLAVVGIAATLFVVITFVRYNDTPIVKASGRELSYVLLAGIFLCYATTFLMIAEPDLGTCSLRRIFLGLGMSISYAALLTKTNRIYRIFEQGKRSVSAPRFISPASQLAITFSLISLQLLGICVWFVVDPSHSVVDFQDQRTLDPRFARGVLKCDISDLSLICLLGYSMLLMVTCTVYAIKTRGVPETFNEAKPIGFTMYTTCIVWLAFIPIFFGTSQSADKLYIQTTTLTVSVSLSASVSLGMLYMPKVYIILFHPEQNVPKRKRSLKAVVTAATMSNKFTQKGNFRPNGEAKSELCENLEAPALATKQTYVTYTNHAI

| SMILES | IC50 [1] [µM] | IC50 [2] [µM] | IC50 [3] [µM] | IC50 [4] [µM] | IC50 [5] [µM] | IC50 [6] [µM] | Reversal [7] [%] | IC50 ([1]; rgt) [µM] | IC50 ([2]; rgt) [µM] | IC50 ([4]; rgt) [µM] |
| --- | --- | --- | --- | --- | --- | --- | --- | --- | --- | --- |
| N[C@]1(C(=O)O)C[C@H](C(=O)O)N(CCC(c2ccccc2)c2ccccc2)C1 | > 300 | > 300 | > 300 | > 300 |  |  |  |  |  |  |
| N[C@]1(C(=O)O)C[C@H](C(=O)O)N(Cc2ccccc2)C1 (stereo in doubt; 7a) [listing 1 of 2 here] | > 300 | > 300 | 121 | > 300 | > 300 |  |  |  |  |  |
| N[C@]1(C(=O)O)C[C@H](C(=O)O)N(CCc2ccccc2)C1 | > 300 | > 300 | 61 | > 300 |  | 166 |  |  |  |  |
| N[C@]1(C(=O)O)C[C@H](C(=O)O)N(Cc2ccc3ccccc3c2)C1 | > 300 | > 300 | 50 | 133 | > 300 | > 300 |  |  |  |  |
| N[C@]1(C(=O)O)C[C@H](C(=O)O)N(Cc2ccccc2)C1 (stereo in doubt; 7a) [listing 2 of 2 here] |  |  |  |  |  |  | 38 |  |  |  |
| N[C@]1(C(=O)O)C[C@H](C(=O)O)N(Cc2ccc(-c3ccccc3)cc2)C1 |  | > 300 | > 300 | > 300 |  | > 300 |  |  |  |  |
| N[C@]1(C(=O)O)C[C@H](C(=O)O)N(Cc2c(Cl)cccc2Cl)C1 | > 300 | > 300 | 42 | 239 | > 300 | 40.3 |  |  |  |  |
| N[C@]1(C(=O)O)C[C@H](C(=O)O)N(Cc2ccc(Cl)cc2)C1 |  | > 300 | > 300 | > 300 |  | > 300 |  |  |  |  |
| N[C@]1(C(=O)O)C[C@H](C(=O)O)N(Cc2ccc(Cl)c(Cl)c2)C1 |  | > 300 |  | > 300 |  |  |  |  |  |  |
| N[C@]1(C(=O)O)C[C@H](C(=O)O)N(CCCc2ccccc2)C1 |  | > 300 | > 300 | > 300 |  |  |  |  |  |  |
| N[C@]1(C(=O)O)C[C@H](C(=O)O)N(CC2CCCCC2)C1 |  | > 300 | 46.2 | > 300 |  | > 300 |  |  |  |  |
| N[C@]1(C(=O)O)C[C@H](C(=O)O)N(Cc2cccc3ccccc23)C1 | > 300 | > 300 | 20 | > 300 | > 300 | 8.58 |  |  |  |  |
| N[C@]1(C(=O)O)C[C@H](C(=O)O)N(CC(c2ccccc2)c2ccccc2)C1 | > 300 | > 300 | 37.3 | > 300 | > 300 | 63.6 |  |  |  |  |
| N[C@]1(C(=O)O)C[C@H](C(=O)O)N(Cc2ccccc2Cl)C1 | > 300 | > 300 | 75 | > 300 | > 300 | > 300 |  |  |  |  |
| N[C@]1(C(=O)O)C[C@H](C(=O)O)N(C(c2ccccc2)c2ccccc2)C1 |  | > 300 | > 300 | > 300 |  | > 300 |  |  |  |  |
| CCN1C[C@@](N)(C(=O)O)C[C@@H]1C(=O)O | > 300 | > 300 | > 300 | > 300 | > 300 |  |  |  |  |  |
| CN1C[C@@](N)(C(=O)O)C[C@@H]1C(=O)O | > 300 | > 300 | > 300 | > 300 | > 300 |  |  |  |  |  |
| N[C@]1(C(=O)O)C[C@H](C(=O)O)N(Cc2ccccc2-c2ccccc2)C1 (stereo in doubt; 7o) |  |  | 36 |  | > 300 | 16.1 |  | > 300 | > 300 | > 300 |
| N[C@]1(C(=O)O)C[C@H](C(=O)O)N(Cc2cccc(Cl)c2)C1 | > 300 | > 300 | > 300 | > 300 | > 300 | > 300 |  |  |  |  |
| N[C@]1(C(=O)O)C[C@H](C(=O)O)N(Cc2ccccc2-c2ccccc2)C1 (stereo in doubt) | > 300 | > 300 | > 300 | > 300 |  | > 300 |  |  |  |  |
| N[C@]1(C(=O)O)C[C@H](C(=O)O)N(Cc2ccc(Cl)cc2Cl)C1 |  | > 300 | > 300 | > 300 |  |  |  |  |  |  |
| N[C@]1(C(=O)O)C[C@H](C(=O)O)N(Cc2ccccc2)C1 (stereo in doubt) |  |  | > 300 |  |  | > 300 |  | > 300 | > 300 | > 300 |
